pIC50: −log10 of the molar value.
Key:
[1] = tested on: a variety of cancers; settings: Phase II, combination with standard cytotoxic chemotherapy; cited from earlier work
[2] = standing in pH 7.8; cyclization; cited from earlier work
[3] = target: T1, recombinant mouse FAPα (rmFAPα) (Mus musculus, UniProt P97321); assay: FAPα enzymatic exopeptidase (dipeptidase) activity assay; type: biochemical; settings: 1 μM test compound; Z-Gly-Pro-AMC substrate
T1 construct: purchased R&S system (so in the source)
T1 sequence (P97321 1-761): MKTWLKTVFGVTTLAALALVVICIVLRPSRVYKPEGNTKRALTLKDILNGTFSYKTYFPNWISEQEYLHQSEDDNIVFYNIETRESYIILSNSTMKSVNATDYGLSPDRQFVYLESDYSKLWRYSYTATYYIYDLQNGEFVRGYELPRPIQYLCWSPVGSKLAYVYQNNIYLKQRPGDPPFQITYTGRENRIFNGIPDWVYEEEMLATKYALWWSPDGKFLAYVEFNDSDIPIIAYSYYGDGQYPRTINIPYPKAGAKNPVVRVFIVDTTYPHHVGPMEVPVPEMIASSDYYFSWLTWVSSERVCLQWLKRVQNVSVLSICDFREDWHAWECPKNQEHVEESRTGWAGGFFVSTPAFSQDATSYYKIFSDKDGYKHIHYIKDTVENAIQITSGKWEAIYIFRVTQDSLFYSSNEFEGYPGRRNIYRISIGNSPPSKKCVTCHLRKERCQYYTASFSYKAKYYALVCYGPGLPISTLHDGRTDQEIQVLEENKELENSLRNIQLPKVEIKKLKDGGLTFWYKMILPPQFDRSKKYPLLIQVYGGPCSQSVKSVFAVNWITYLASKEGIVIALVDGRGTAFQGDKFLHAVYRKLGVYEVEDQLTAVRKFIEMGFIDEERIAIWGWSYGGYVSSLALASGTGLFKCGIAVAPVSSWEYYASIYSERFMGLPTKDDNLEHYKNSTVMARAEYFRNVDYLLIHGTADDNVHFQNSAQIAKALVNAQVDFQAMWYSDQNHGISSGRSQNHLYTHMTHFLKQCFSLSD
Method: FAPα enzymatic exopeptidase (dipeptidase) activity assay. […] 7-Amino-4-Methylcoumarin (AMC) release was detected by measuring fluorescence at Ex/Em 380/460 nm using a Multifunction Microplate Reader (Synergy 4, Biotek). All measurements were carried out in duplicate. […] For the calculations, the average measurements from reactions containing only vehicle and substrate, without enzyme, were used as a blank and were subtracted from the rest of the measurements. Percent inhibition was calculated using the average measurements from reactions containing vehicle, enzyme, and substrate as the maximum of enzymatic activity. Measurements were performed as a single point.

[4] = target: T2, recombinant human FAPα (rhFAPα) (Homo sapiens, UniProt Q12884); assay: as above; type: biochemical; settings: 1 μM test compound; Z-Gly-Pro-AMC substrate
T2 construct: purchased R&S system (so in the source)
T2 sequence (Q12884 1-760): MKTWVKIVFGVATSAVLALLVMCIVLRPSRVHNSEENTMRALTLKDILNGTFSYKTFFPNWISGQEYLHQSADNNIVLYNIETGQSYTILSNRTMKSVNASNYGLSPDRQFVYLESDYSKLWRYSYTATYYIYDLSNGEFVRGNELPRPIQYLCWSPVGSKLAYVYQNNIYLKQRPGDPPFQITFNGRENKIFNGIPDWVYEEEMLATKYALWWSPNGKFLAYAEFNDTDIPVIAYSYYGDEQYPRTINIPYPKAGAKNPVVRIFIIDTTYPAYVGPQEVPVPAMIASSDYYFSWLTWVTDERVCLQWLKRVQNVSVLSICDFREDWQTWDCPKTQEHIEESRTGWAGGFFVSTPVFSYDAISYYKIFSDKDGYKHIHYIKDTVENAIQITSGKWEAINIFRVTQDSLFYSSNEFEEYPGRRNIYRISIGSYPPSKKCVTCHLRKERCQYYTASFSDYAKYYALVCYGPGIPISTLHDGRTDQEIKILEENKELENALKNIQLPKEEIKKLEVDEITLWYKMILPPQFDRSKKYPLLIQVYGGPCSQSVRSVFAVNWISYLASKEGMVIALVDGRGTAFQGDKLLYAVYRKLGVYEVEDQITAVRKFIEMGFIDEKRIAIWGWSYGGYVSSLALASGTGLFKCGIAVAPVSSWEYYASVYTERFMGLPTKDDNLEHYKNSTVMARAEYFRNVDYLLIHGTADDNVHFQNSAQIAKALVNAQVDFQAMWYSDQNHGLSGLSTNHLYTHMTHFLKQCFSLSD

[5] = target: T3, mouse plasma DPPIV (Mus musculus, UniProt P28843); assay: DPPIV enzymatic activity in mouse plasma; type: biochemical; settings: C57BL/6 mouse plasma; H-Gly-Pro-AMC substrate
T3 construct: from tissue; host or cells: mouse plasma (C57BL/6, EDTA)
T3 sequence (P28843 37-760 limits assumed): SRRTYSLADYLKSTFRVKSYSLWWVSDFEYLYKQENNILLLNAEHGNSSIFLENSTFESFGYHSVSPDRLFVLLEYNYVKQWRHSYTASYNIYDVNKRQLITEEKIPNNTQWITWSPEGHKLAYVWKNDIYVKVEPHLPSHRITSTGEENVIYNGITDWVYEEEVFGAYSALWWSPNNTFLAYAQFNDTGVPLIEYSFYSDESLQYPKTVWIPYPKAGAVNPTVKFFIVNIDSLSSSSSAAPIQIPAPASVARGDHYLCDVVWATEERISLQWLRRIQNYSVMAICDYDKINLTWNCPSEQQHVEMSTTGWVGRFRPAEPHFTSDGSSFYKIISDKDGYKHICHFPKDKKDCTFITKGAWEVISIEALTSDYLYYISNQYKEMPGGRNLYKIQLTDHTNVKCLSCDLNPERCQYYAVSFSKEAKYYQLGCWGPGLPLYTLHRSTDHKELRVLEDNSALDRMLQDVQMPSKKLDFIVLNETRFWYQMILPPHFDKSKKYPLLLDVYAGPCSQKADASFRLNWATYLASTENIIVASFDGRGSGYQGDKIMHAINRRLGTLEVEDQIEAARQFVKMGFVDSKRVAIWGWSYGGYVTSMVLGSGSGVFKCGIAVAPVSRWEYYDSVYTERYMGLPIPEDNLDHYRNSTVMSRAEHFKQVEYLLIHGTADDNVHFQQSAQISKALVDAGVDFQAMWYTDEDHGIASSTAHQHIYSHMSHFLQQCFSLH
Method: Approximately 500 μL of whole blood from one C57BL/6 mouse was harvested into BD Microtainer® tubes (K2) EDTA (#365974, Becton Dickinson and Co.) via terminal cardiac puncture. The blood sample was immediately centrifuged at approximately 9000 g at 4° C. for 5 minutes. Plasma was separated and stored at −80° C. in aliquots of 300 μL. To assay baseline DPPIV enzymatic exopeptidase activity, 5 μL of thawed, mouse plasma was diluted (1:5) in buffer (100 mM Tris-HCl, 400 mM NaCl, 50 mM salicylic acid, 1 mM EDTA, pH 7.5) and mixed with 35 µL of the same buffer before being pre-incubated with different concentrations of 10 μL of test compounds or DMSO vehicle for 15 minutes at 37° C. in 96-well black plates (Nunc, #237108). After pre-incubation, 50 μL of 200 μM dipeptide substrate H-Gly-Pro-AMC (Bachem, #L-1225) was added to the mixture. The assay was performed for 1 hour at 37° C. 7-Amino-4-Methylcoumarin (AMC) release was detected measuring fluorescence at an excitation wavelength of 360 nm and an emission wavelength of 460 nm using a Multifunction Microplate Reader (Synergy 4, Biotek). All measurements were carried out at least in duplicate.

[6] = target: T4, recombinant mouse DPPIV (rmDPPIV) (Mus musculus, UniProt P28843); assay: DPPIV enzymatic activity assay; type: biochemical; settings: H-Gly-Pro-pNA substrate
T4 construct: purchased R&S system (so in the source)
T4 sequence (P28843 whole entry): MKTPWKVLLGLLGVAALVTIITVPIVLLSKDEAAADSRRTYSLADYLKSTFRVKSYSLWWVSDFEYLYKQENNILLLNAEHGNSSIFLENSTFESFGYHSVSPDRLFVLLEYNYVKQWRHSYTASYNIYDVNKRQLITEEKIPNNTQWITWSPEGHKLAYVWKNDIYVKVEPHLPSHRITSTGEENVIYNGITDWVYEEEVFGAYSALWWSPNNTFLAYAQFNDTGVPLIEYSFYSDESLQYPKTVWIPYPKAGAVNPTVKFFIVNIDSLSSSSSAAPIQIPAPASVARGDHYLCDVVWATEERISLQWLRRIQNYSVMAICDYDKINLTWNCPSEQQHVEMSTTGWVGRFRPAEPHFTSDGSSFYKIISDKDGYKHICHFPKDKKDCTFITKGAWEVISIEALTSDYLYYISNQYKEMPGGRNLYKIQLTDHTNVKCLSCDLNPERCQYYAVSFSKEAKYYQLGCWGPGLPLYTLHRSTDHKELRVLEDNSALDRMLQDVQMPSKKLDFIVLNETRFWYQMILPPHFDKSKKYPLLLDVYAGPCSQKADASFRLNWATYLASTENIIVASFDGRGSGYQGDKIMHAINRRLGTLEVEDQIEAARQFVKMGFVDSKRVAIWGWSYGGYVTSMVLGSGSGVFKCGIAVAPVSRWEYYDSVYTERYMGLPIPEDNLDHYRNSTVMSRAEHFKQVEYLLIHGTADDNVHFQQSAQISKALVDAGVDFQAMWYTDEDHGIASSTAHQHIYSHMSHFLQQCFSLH

[7] = Intravenous and oral bioavailability in mice; type: in vivo
Method: The pharmacokinetic properties of exemplary test compounds were assayed after administration of an intravenous (IV) 2 mg/kg or oral (PO) 10 mg/kg single dose in mice. Exemplary test compounds were formulated at 0.4 and 1 mg/ml in a vehicle containing Poly-Ethylene Glycol 200 (PEG200; Cat. No. #P3015, Sigma Aldrich) and distilled water (dH2O) (50/50, v/v) as dosing solutions for intravenous and oral administration, respectively.
C57BL/6j and Balb/c mice, approximately 8-10 weeks old, were obtained from the vivarium Fundación Ciencia & Vida Chile (Santiago, Chile) and maintained in a temperature-controlled room with 12/12 hr light/dark schedule with food and water ad libitum. Animals were acclimated for a minimum period of 4 days upon arrival at the testing facility.
On the day of study, mice were weighed and identified by marking the tail with numbers using a non-toxic permanent marker for designation into the experimental groups (n=3 per group). Each mouse in the IV dosing groups received a systemic bolus of 2 mg/kg dosing solution via the caudal vein.
Non-dosed mice were used to collect samples of zero time points. […] Blood samples were centrifuged immediately at 9,000 g at 4° C. for 5 min and the plasma was separated.
The plasma samples were analyzed by QTRAP 4500 triple quadrupole mass spectrometer (Applied Biosystems SCIEX) in positive or negative ion mode depending on the tested compound and interfaced with an ekspert ultraLC 100-XL UPLC System (eksigent) to determine the concentration of the exemplary test compound. […] The precipitated samples were centrifuged at 6,100 g for 30 min at 4° C. Following centrifugation, an aliquot of each supernatant was transferred into a clean sample vial and diluted with two volumes of aqueous mobile phase (0.2% formic acid in water). Samples were injected onto a reverse phase analytical column (YMC Triart C18; 2.0×50 mm; 1.9 μm; YMC CO) and eluted with a gradient of 0.1 or 0.2% formic acid in Acetonitrile. Test compound and internal standard were monitored by a multiple reaction monitoring (MRM) experiment using Analyst software (v1.6.2, Applied Biosystems SCIEX). Quantitation was conducted using MultiQuant software (v2.1, Applied Biosystems SCIEX) and the resulting calibration curve was fitted with a linear or quadratic regression and 1/x weighting.
IV and PO PK parameters were calculated from the concentration-time data using Phoenix WinNonlin software (v6.4, Certara, Princeton, N.J.) by noncompartmental analysis. Area under the concentration-time curve (AUClast) was estimated using a log-linear trapezoidal method, from the dosing time to the last measurable concentration.

[8] = target: T5, recombinant mouse PREP (rmPREP) (Mus musculus, UniProt Q9QUR6); assay: PREP enzymatic activity assay; type: biochemical; settings: Z-Gly-Pro-AMC substrate
T5 construct: purchased R&S system (so in the source)
T5 sequence (Q9QUR6 whole entry): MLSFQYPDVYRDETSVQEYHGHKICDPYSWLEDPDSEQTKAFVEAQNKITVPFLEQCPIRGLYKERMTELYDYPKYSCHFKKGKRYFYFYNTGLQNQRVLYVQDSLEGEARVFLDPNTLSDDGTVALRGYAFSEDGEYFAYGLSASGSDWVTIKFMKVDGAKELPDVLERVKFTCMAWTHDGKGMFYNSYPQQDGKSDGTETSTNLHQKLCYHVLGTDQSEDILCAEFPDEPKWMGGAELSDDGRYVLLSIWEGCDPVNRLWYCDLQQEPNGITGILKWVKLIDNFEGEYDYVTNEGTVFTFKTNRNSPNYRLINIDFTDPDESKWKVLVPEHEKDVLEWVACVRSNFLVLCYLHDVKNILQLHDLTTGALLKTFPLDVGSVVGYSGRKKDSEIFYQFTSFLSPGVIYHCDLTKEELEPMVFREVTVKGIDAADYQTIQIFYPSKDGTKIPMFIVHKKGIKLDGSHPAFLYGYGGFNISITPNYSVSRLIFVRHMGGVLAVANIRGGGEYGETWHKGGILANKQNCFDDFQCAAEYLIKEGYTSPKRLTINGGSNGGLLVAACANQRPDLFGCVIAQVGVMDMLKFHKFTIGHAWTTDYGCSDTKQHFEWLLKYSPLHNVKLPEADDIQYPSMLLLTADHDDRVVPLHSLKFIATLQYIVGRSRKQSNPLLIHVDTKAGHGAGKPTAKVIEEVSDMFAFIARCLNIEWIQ
Method: 7-Amino-4-Methylcoumarin (AMC) release was detected by measuring fluorescence at Ex/Em 380/460 nm using a Multifunction Microplate Reader (Synergy 4, Biotek). All measurements were carried out in triplicate.

Compound	clinical efficacy endpoints [1]	stability of protease inhibitory activity [2]	rmFAPα (% exo inh @ 1 μM) [3]	rhFAPα (% exo inh @ 1 μM) [4]	pIC50 [5]	pIC50 [6]	F (bioavailability) ([7]; PO 10 mg/kg vs IV 2 mg/kg)	AUClast ([7]; oral (PO) 10 mg/kg single dose, plasma)	pIC50 [8]
CC(C)[C@H](N)C(=O)N1CCC[C@H]1B(O)O [Val-boroPro]	endpoints for efficacy were not met	rapidly loses protease inhibitory activity	–	–	–	–	–	–	–
N#CC1CC(F)(F)CN1C(=O)CNC(=O)c1ccnc2ccccc12 (stereo not drawn) [Ref. Comp., reference compound]	–	–	+++ (+++ refers to > 50% inhibition at 1 μM test compound)	+++ (+++ refers to > 50% inhibition at 1 μM test compound)	< 5.00	< 5.00	39.7%	1120 ng·h/mL	< 5.00

From US11780821B2, “Inhibitors of fibroblast activation protein” (Praxis Biotech LLC, priority 2017, dated 2023)
